Assay results reported in patent US11697667B2, “Salts and polymorphs of cethromycin for the treatment of disease” (AliquantumRx, Inc., priority 2019, dated 2023).

Experiments:
[1] = system: malaria (infective sporozoites); experiment: Liver stage activity in murine malaria model; type: in vivo, mice
Description: Quantifiable endpoints may include measured activity against malaria.

[2] = system: malaria; experiment: Mouse malaria blood stage high parasitemia parasite killing model; type: in vivo, mice
Description: Additionally or alternatively, mouse malaria blood stage activity may be tested in a high parasitemia parasite killing model (n=5 mice/dose) to assess rate of killing and minimal dose and duration for cure as disclosed above and/or according to methods known in the art. Quantifiable endpoints may include measured activity against malaria.

Structure (SMILES): CCC1OC(=O)C(C)C(=O)C(C)C(OC2OC(C)CC(NC)C2O)C(C)(OCC=Cc2cnc3ccccc3c2)CC(C)C(=O)C(C)C2NC(=O)OC12C (centres unmarked) [M1 metabolite, N-desmethyl cethromycin]
- Liver stage activity relative to the activity of cethromycin chloride [1]: less than 30%
- Blood stage activity relative to the activity of cethromycin chloride [2]: less than 30%
